Reference: patent publication US20210348119A1, “COMPOSITIONS AND METHODS FOR CELL CULTURE” (The United States of America as Represented By The …, priority 2018, published 2021)
Where “and” joins values, the source holds several entries; their conditions need not be identical. Identical values can stand only once. Counter-ions that a name gives are not always drawn. Like-named read-outs stand apart in the source and are kept apart here.

Tested on: H9 cells
Test: qHTS for survival of dissociated H9 cells (CellTiter-Glo, 24 hours after seeding)
Assay type: cell-based, human
From the text: FIG. 2 schematically illustrates qHTS procedure.
All the screed compounds were received pre-plated at the pre-determined concentrations. […] Curve classification is explained in Huang et al. “Chemical genomics profiling of environmental chemical modulation of human nuclear receptors” Environ. Health. Perspect.

[1] = H9 cell survival normalized to 10 μM Y-27632 (taken to be 100%)
[2] = H9 cell survival, CellTiter-Glo 24 hours after seeding; read-out: AC50 (concentration at 50% efficacy)
[3] = H9 cell survival, normalized to 10 μM Y-27632
[4] = Homo sapiens, H9, 24 h, H9 cell survival normalized to 10 μM Y-27632 (taken to be 100%); read-out: Max (maximum activity value from all tested concentrations)
[5] = Homo sapiens, H9, 24 h, H9 cell survival, normalized to 10 μM Y-27632; read-out: Efficacy (activity range between predicted activities at zero and infinite doses, Hill equation)
[6] = Homo sapiens, H9, 24 h, H9 cell survival, CellTiter-Glo 24 hours after seeding; read-out: AC50 (concentration at 50% efficacy)

| SMILES | Max (maximum activity value from all tested concentrations) [1] | AC50 [2] [µM] | Efficacy (activity range between predicted activities at zero and infinite doses, Hill equation) [3] | Emax [4] [%] | Emax [5] [%] | AC50 [6] [µM] | other results |
| --- | --- | --- | --- | --- | --- | --- | --- |
| COc1c(Nc2ncc(Cl)c(N[C@H]3[C@@H](C(N)=O)[C@@H]4C=C[C@H]3C4)n2)ccc2c1CC[C@@H](N1CCOCC1)CC2 [CEP-28122] | 23.83% | 0.585 | 23.5 | – | – | – | – |
| CN1CCN(c2cccc(Nc3nc4c(-c5ccc(S(C)(=O)=O)cc5)cccn4n3)c2)CC1 [CEP-33779] | 27.79% | 5.9 | 25.5 | – | – | – | – |
| O=c1[nH]c2ccc(Cl)cc2c(N[C@@H]2CN3CCC2CC3)c1-c1nc2ccccc2[nH]1 [CHIR-124] | 21.27% | 0.235 | 12.4 | – | – | – | – |
| Cc1[nH]c2ccccc2c1CCNC(=O)c1cccs1 [CK-636] | 47.74% | – | 0 | – | – | – | – |
| COCCOc1ccc2c(c1)ncn2-c1ccc2cccc(N3CCC(N)CC3)c2n1 [CP-673451] | – | – | – | 35.6 | 0 | – | – |
| COCC(=O)NC/C=C/c1ccc2ncnc(Nc3ccc(Oc4ccc(C)nc4)c(C)c3)c2c1 [CP-724714] | – | – | – | 21.2 | 23.5 | 20.8 | – |
| CCS(=O)(=O)N1CCN(c2ccc(Nc3ncc(C(N)=O)c(NC4CC4)n3)cc2)CC1 [Cerdulatinib] | – | – | – | 39 | 33.6 | 2.93 | – |
| C=C1[C@@H](C)[C@H]2[C@H](Cc3ccccc3)NC(=O)[C@]23OC(=O)/C=C/[C@H](O)CCC[C@@H](C)C/C=C/[C@H]3[C@@H]1O [Cytochalasin B] | 14.14% | 7.5 | 43.2 | – | – | – | – |
| Cc1c(O)c(O)cc2c1CC=C1[C@@]2(C)CC[C@@]2(C)[C@@H]3C[C@](C)(C(=O)O)CC[C@]3(C)CC[C@]12C [DIHYDROCELASTROL] | – | – | – | – | – | – | Emax (Homo sapiens, H9, 24 h; read-out: Efficacy (activity range between predicted activities at zero and infinite doses, Hill equation)): 26.1%; Emax (Homo sapiens, H9, 24 h; read-out: Max (maximum activity value from all tested concentrations)): 21.2%; AC50 (Homo sapiens; H9 cell survival, CellTiter-Glo 24 hours after seeding; read-out: AC50 (concentration at 50% efficacy)): 14.7 µM |
| CC(C)(C)c1nc(-c2cccc(NS(=O)(=O)c3c(F)cccc3F)c2F)c(-c2ccnc(N)n2)s1 [Dabrafenib] | – | – | – | 22 | 21.7 | 14.8 | – |
| CC[C@@](C)(Nc1ccnc(-c2c[nH]c3ncccc23)n1)C(=O)NCC(F)(F)F [Decernotinib] | – | – | – | 34 | 30.1 | 2.93 | – |
| Cn1c(=O)c2c(ncn2CC2OCCO2)n(C)c1=O [Doxofylline] | – | – | – | – | – | 0.521 | Emax (Homo sapiens, H9, 24 h, read-out: Efficacy (activity range between predicted activities at zero and infinite doses, Hill equation)): 12.1%; Emax (Homo sapiens, H9, 24 h, read-out: Max (maximum activity value from all tested concentrations)): 22.5% |
| CC1=NN(c2ccccc2)C(=O)C1 [Edaravone] | – | – | – | 21 | 11 | 0.521 | – |
| O=S(=O)(c1cccc2cnccc12)N1CCCNCC1 [Fasudil hydrochloride] | – | – | – | 107 | 127 | 33.2 | – |
| CNCCC(Oc1ccc(C(F)(F)F)cc1)c1ccccc1 (centres unmarked) [Fluoxetine hydrochloride] | – | – | – | 70.4 | 0 | – | – |
| CC1(C)[C@@H](O[C@H]2O[C@H](C(=O)O)[C@@H](O)[C@H](O)[C@H]2O[C@@H]2O[C@H](C(=O)O)[C@@H](O)[C@H](O)[C@H]2O)CC[C@]2(C)[C@H]3C(=O)C=C4[C@@H]5C[C@@](C)(C(=O)O)CC[C@]5(C)CC[C@@]4(C)[C@]3(C)CC[C@@H]12.N [GLYCYRRHIZIC ACID. AMMONIUM SALT] | 23.95% | 14.7 | 26 | – | – | – | – |
| CC1=C(C(=O)Nc2cc3cn[nH]c3cc2F)C(c2ccc(Cl)cc2F)N=C(c2ccnc(Cl)c2)N1 (centres unmarked) [GSK-25] | 121.1% and 113.3% | – | 118 and 113 | – | – | – | – |
| CCn1c(-c2nonc2N)nc2cnc(Oc3cccc(NC(=O)c4ccc(OCCN5CCOCC5)cc4)c3)cc21 [GSK-269962A] | 133.3% | 11.8 | 106 | – | – | – | – |
